Read-outs that look alike come from different tables or passages of the source.
Test: Phase 1 Stage 1 clinical pharmacokinetics of SC ZA co-administered with rHuPH20
Assay type: in vivo, human
Conditions: human, serum, sc; for MRT: read-out: MRT; for Tmax: read-out: Tmax; for AUC(0-inf): read-out: AUC (0-∞); for AUC(0-t): ZA […] SC
Description: A pharmacokinetic study of zoledronic acid (ZA) co-administered with rHuPH20 in human subjects was conducted. The primary objective of the study was to determine the bioavailability of zoledronic acid dosed via subcutaneous (SC) co-administration with human recombinant hyaluronidase PH20 (rHuPH20). […] The patients were administered the prescribed dosage formulations as follows: Cohorts 1-5 were administered a single subcutaneous infusion in a dosage volume of 100 ml at a rate of 3 mL/min. […] The dosing solution is administered via needle or catheter into the SC space of the left anterior thigh (midway between the anterior iliac crest and the cephalad border of the patella). For cohorts 1-5, the dosing solutions were administered by a controlled rate infusion pump at approximately 3 mL/minute. […] The dosing solutions were administered by syringe push bolus injection. […] Serum concentration of ZA was determined using a qualified LC-MS-MS assay after derivatization with diazomethane (Zhu, L S et al. (2006) Rapid Commun. […] The assay range was from 2.0 to 400 ng/mL with a lower limit of quantitation (LLOQ) at 2.0 ng/mL. […] Non-compartmental analysis was used for derivation of primary and secondary pharmacokinetic (PK) parameters. […] Summary statistics (mean, standard deviation, and median) were calculated using JMP or Microsoft Excel.

[1] = ZA 1 mg SC + 24000 U rHuPH20, individual subjects
[2] = ZA 1 mg SC + 24000 U rHuPH20, mean, n=3
[3] = ZA 1 mg SC + 24000 U rHuPH20, median, n=3
[4] = ZA 2 mg SC + 24000 U rHuPH20, individual subjects
[5] = ZA 2 mg SC + 24000 U rHuPH20, mean, n=3
[6] = ZA 2 mg SC + 24000 U rHuPH20, median, n=3
[7] = ZA 5 mg SC + 24000 U rHuPH20, individual subjects
[8] = ZA 5 mg SC + 24000 U rHuPH20, mean, n=3
[9] = ZA 5 mg SC + 24000 U rHuPH20, median, n=3

With O=P(O)(O)C(O)(Cn1ccnc1)P(=O)(O)O [ZA, 1-hydroxy-2-(1H-imidazol-1-yl)ethylidene-1,1-bisphosphonic acid] the MRT [1] was 6.93 h, the Tmax [1] was 1.31 h and the Vd/F (ZA 1 mg SC + 24000 U rHuPH20, individual subjects, read-out: Vss/F) was 0.988 L/kg. It also gave a Vd/F (ZA 1 mg SC + 24000 U rHuPH20, individual subjects, read-out: Vz/F) of 2.65 L/kg, a CL/F [2] of 2.15 mL/min/kg and a Cmax [2] of 29.5 ng/mL. For the same molecule, the AUC(0-inf) [2] was 134 ng·h/mL, the MRT [2] was 6.61 h and the Tmax [2] was 1.03 h. For the same molecule, the Vd/F (ZA 1 mg SC + 24000 U rHuPH20, mean, n=3, read-out: Vss/F) was 0.852 L/kg, the Vd/F (ZA 1 mg SC + 24000 U rHuPH20, mean, n=3, read-out: Vz/F) was 2.13 L/kg and the CL/F [3] was 2.38 mL/min/kg. For the same molecule, the Cmax [3] was 30.1 ng/mL, the AUC(0-inf) [3] was 122 ng·h/mL and the MRT [3] was 6.66 h. It also gave a Tmax [3] of 1.06 h, a Vd/F (ZA 1 mg SC + 24000 U rHuPH20, median, n=3, read-out: Vss/F) of 0.988 L/kg and a Vd/F (ZA 1 mg SC + 24000 U rHuPH20, median, n=3, read-out: Vz/F) of 2.05 L/kg. For the same molecule, the CL/F [4] was 2.25 mL/min/kg, the Cmax [4] was 62.8 ng/mL and the AUC(0-inf) [4] was 246 ng·h/mL. For the same molecule, the MRT [4] was 5.72 h, the Tmax [4] was 1.31 h and the Vd/F (ZA 2 mg SC + 24000 U rHuPH20, individual subjects, read-out: Vss/F) was 0.774 L/kg. It also gave a Vd/F (ZA 2 mg SC + 24000 U rHuPH20, individual subjects, read-out: Vz/F) of 2.48 L/kg, a CL/F [5] of 2.11 mL/min/kg and a Cmax [5] of 58.2 ng/mL. It also gave an AUC(0-inf) [5] of 262 ng·h/mL, an MRT [5] of 7.5 h and a Tmax [5] of 1.48 h. For the same molecule, the Vd/F (ZA 2 mg SC + 24000 U rHuPH20, mean, n=3, read-out: Vss/F) was 0.941 L/kg, the Vd/F (ZA 2 mg SC + 24000 U rHuPH20, mean, n=3, read-out: Vz/F) was 2.87 L/kg and the CL/F [6] was 2.06 mL/min/kg. For the same molecule, the Cmax [6] was 58.7 ng/mL, the AUC(0-inf) [6] was 246 ng·h/mL and the MRT [6] was 6.19 h. For the same molecule, the Tmax [6] was 1.56 h, the Vd/F (ZA 2 mg SC + 24000 U rHuPH20, median, n=3, read-out: Vss/F) was 0.774 L/kg and the Vd/F (ZA 2 mg SC + 24000 U rHuPH20, median, n=3, read-out: Vz/F) was 2.48 L/kg. It also gave a CL/F [7] of 2.11 mL/min/kg, a Cmax [7] of 131 ng/mL and an AUC(0-inf) [7] of 620 ng·h/mL. For the same molecule, the MRT [7] was 10.9 h, the Tmax [7] was 0.81 h and the Vd/F (ZA 5 mg SC + 24000 U rHuPH20, individual subjects, read-out: Vss/F) was 1.39 L/kg. The Vd/F (ZA 5 mg SC + 24000 U rHuPH20, individual subjects, read-out: Vz/F) was 4.27 L/kg, the CL/F [8] was 1.85 mL/min/kg and the Cmax [8] was 132 ng/mL. The AUC(0-inf) [8] was 662 ng·h/mL, the MRT [8] was 12.5 h and the Tmax [8] was 0.98 h. For the same molecule, the Vd/F (ZA 5 mg SC + 24000 U rHuPH20, mean, n=3, read-out: Vss/F) was 1.38 L/kg, the Vd/F (ZA 5 mg SC + 24000 U rHuPH20, mean, n=3, read-out: Vz/F) was 3.92 L/kg and the CL/F [9] was 1.85 mL/min/kg. It also gave a Cmax [9] of 131 ng/mL, an AUC(0-inf) [9] of 637 ng·h/mL and an MRT [9] of 12.7 h. For the same molecule, the Tmax [9] was 0.81 h, the Vd/F (ZA 5 mg SC + 24000 U rHuPH20, median, n=3, read-out: Vss/F) was 1.39 L/kg and the Vd/F (ZA 5 mg SC + 24000 U rHuPH20, median, n=3, read-out: Vz/F) was 3.91 L/kg. For the same molecule, the AUC(0-t) (AUC (0-12 h), Subj 1, inf 0.554 hr, PH20 23928 U) was 29.2 ng·h/mL, the AUC(0-t) (AUC (0-12 h), Subj 8, inf 0.531 hr, PH20 22944 U) was 28.8 ng·h/mL and the AUC(0-t) (AUC (0-12 h), Subj 11, inf 0.554 hr, PH20 23928 U) was 29.4 ng·h/mL. The AUC(0-t) (AUC (0-12 h), Subj 16, inf 0.553 hr, PH20 23904 U) was 60.8 ng·h/mL, the AUC(0-t) (AUC (0-12 h), Subj 18, inf […], PH20 23304 U) was 66.2 ng·h/mL and the AUC(0-t) (AUC (0-12 h), Subj 21, inf 0.556 hr, PH20 24000 U) was 62.4 ng·h/mL. For the same molecule, the AUC(0-t) (AUC (0-12 h), Subj 25, inf 0.549 hr, PH20 23736 U) was 103 ng·h/mL, the AUC(0-t) (AUC (0-12 h), Subj 26, inf […], PH20 23088 U) was 137 ng·h/mL and the AUC(0-t) (AUC (0-12 h), Subj 31, inf 0.554 hr, PH20 23952 U) was 213 ng·h/mL. The AUC(0-t) (AUC (0-12 h), Subj 32, inf 0.556 hr, PH20 24000 U) was 238 ng·h/mL, the AUC(0-t) (AUC (0-12 h), Subj 51, inf 0.251 hr, PH20 6024 U) was 384 ng·h/mL and the AUC(0-t) (AUC (0-12 h), Subj 77, inf […], PH20 6000 U) was 516 ng·h/mL. The AUC(0-t) (AUC (0-24 h), Subj 1, inf 0.554 hr, PH20 23928 U) was 29.4 ng·h/mL, the AUC(0-t) (AUC (0-24 h), Subj 8, inf 0.531 hr, PH20 22944 U) was 29.4 ng·h/mL and the AUC(0-t) (AUC (0-24 h), Subj 11, inf 0.554 hr, PH20 23928 U) was 29.9 ng·h/mL. The AUC(0-t) (AUC (0-24 h), Subj 16, inf 0.553 hr, PH20 23904 U) was 62.9 ng·h/mL, the AUC(0-t) (AUC (0-24 h), Subj 18, inf […], PH20 23304 U) was 68.5 ng·h/mL and the AUC(0-t) (AUC (0-24 h), Subj 21, inf 0.556 hr, PH20 24000 U) was 64.7 ng·h/mL. For the same molecule, the AUC(0-t) (AUC (0-24 h), Subj 25, inf 0.549 hr, PH20 23736 U) was 112 ng·h/mL, the AUC(0-t) (AUC (0-24 h), Subj 26, inf […], PH20 23088 U) was 147 ng·h/mL and the AUC(0-t) (AUC (0-24 h), Subj 31, inf 0.554 hr, PH20 23952 U) was 228 ng·h/mL. The AUC(0-t) (AUC (0-24 h), Subj 32, inf 0.556 hr, PH20 24000 U) was 257 ng·h/mL, the AUC(0-t) (AUC (0-24 h), Subj 51, inf 0.251 hr, PH20 6024 U) was 430 ng·h/mL and the AUC(0-t) (AUC (0-24 h), Subj 77, inf […], PH20 6000 U) was 566 ng·h/mL. The AUC(0-t) (AUC (0-48 h), Subj 1, inf 0.554 hr, PH20 23928 U) was 29.4 ng·h/mL, the AUC(0-t) (AUC (0-48 h), Subj 8, inf 0.531 hr, PH20 22944 U) was 29.4 ng·h/mL and the AUC(0-t) (AUC (0-48 h), Subj 11, inf 0.554 hr, PH20 23928 U) was 29.9 ng·h/mL. The AUC(0-t) (AUC (0-48 h), Subj 16, inf 0.553 hr, PH20 23904 U) was 64.2 ng·h/mL.

— patent publication US20090311237A1, “Combination therapy using a soluble hyaluronidase and a bisphosphonate” (priority 2008, published 2009)
